In patent publication US20090196930A1, “AEROSOLIZED NITRITE AND NITRIC OXIDE -DONATING COMPOUNDS AND USES THEREOF” (Aires Pharmaceuticals, Inc., priority 2007, published 2009):
Like-named read-outs stand apart in the source and are kept apart here.

Legend:
[1] = system: Sprague-Dawley rats; assay: 7-day inhalation dose range finding toxicology, rat
Description: Formulations. […] The formulations defined below were titrated by nebulization time to achieve the dose levels define in Table 21.
Results & Discussion (Rats). A 7-Day range-finding study with nebulized Formulation I Inhalation Solution was performed via inhalation through the nose of male and female Sprague-Dawley rats.

[2] = system: normal, healthy volunteers; details: human, device loaded sodium nitrite
Description: Vial 3 contained 0.1 mM sodium phosphate only. In the preliminary dose escalation to the maximum tolerated dose (MTD), immediately prior to administration, an equal portion of Vial 1 and Vial 2 were admixed and then diluted with Vial 3 contents as appropriate to achieve lower concentration dosing solutions for the dose-escalation protocol. Following establishment of the Vial 1+Vial 2 admixed test material MTD, additional dosing cohorts of 3 subjects were enrolled at the Vial 1+Vial 2 MTD, using Vial 3-diluted Vial 1 contents only.
Each subject also received vehicle control. The nebulizer used for this study was the Aerogen Idehaler. The Aerogen Idehaler is a combination of two units. The nebulization head is the Aeroneb® Solo (Aerogen, Galway, Ireland) and the aerosol-reservoir attachment Idehaler™ (Diffusion Technique Francais, Saint Etienne, France).

[3] = in vivo; details: rat, plasma
Description: Rats (n=3-4/group, ˜400 gm) were anesthetized with Isoflorane and the dry powder was insufflated intratracheally using a Penn-Century Insufflator (model DP-4: Philadelphia, Pa.). Blood was collected in heparinized tubes just prior to dosing, 5, 15, 30 and 60 minutes after dosing, immediately put on wet ice and then centrifuged at 13,000 rpm in a microcentrifuge for 45 sec. Plasma was harvested and frozen at −80° C. until analysis.

[4] = system: monocrotaline-induced pulmonary hypertension; assay: Monocrotaline model of pulmonary hypertension, inhaled nebulized liquid sodium nitrite; details: rat, 5 μg/kg liquid aerosol
[5] = system: beagle dogs; assay: 7-day inhalation dose range finding toxicology, dog; type: in vivo
Description: Results & Discussion (Dogs). […] Dogs were exposed to either vehicle (citric acid/saccharin/sodium phosphate buffer), or Formulation I Inhalation Solution prepared in identical vehicle to achieve target doses of 2, 10 or 44 mg/kg/day for 7 days (Table 21). Administered doses were 2, 12 and 54 mg/kg/day. […] Methemoglobin levels in blood increased appreciably in the high-dose group and minimally above basal levels in the mid-dose group (Table 23). Gross necropsies of the treated groups were in general similar to controls which included the presence of small red foci in the lung area, were few in nature and not associated with a dose responsive test-article relationship. Histopathology included mild focal pneumonia with minimal to mild focal peribronchiolar/perivascular mononuclear cell infiltrate and minimal to mild focal alveolar mixed cell infiltrate in the lungs of both the vehicle and high dose groups (low- and mid-dose groups not examined). M/E ratios were decreased in high-dose group males. […] Therefore, based on the transient changes during this 7 day study, an NOAEL of 12 mg/kg/day was established.

[6] = in vivo; details: male, Sprague-Dawley, rat, plasma, 10 mg/kg; for half-life: T1/2, rat
[7] = system: hypoxia-induced pulmonary hypertension; details: cited from earlier work
[8] = system: monocrotaline-induced pulmonary hypertension; details: for RV:LV + S: MCT 50 mg/kg sc, three times per week for four weeks
[9] = 101 mg/kg/day inhaled (dose lowered after day 1)
[10] = high dose group after lowering of dose, printed (76)
[11] = inhaled or intranasal, 90 ug/kg
[12] = inhaled or intranasal, 700 ug/kg
[13] = inhaled or intranasal, IT (dry powder, normalized to 10 mg/kg)
[14] = inhaled or intranasal, IT (liquid, 10 mg/kg)

O=NO [sodium nitrite]
Mortality (%) Female ([1]; 4 mg/kg/day inhaled): 0% | Mortality (%) Male ([1]; 4 mg/kg/day inhaled): 0% | Peak MetHgb (%) On Day 1 Female ([1]; 4 mg/kg/day inhaled): 1.0 ± 0.1% | Peak MetHgb (%) On Day 1 Male ([1]; 4 mg/kg/day inhaled): 1.0 ± 0.0% | Peak MetHgb (%) On Day 7 Female ([1]; 4 mg/kg/day inhaled): 1.3 ± 0.1% | Peak MetHgb (%) On Day 7 Male ([1]; 4 mg/kg/day inhaled): 1.0 ± 0.0% | Mortality (%) Female ([1]; 18 mg/kg/day inhaled): 0% | Mortality (%) Male ([1]; 18 mg/kg/day inhaled): 0% | Peak MetHgb (%) On Day 1 Female ([1]; 18 mg/kg/day inhaled): 4.5 ± 1.2% | Peak MetHgb (%) On Day 1 Male ([1]; 18 mg/kg/day inhaled): 3.4 ± 0.3% | Peak MetHgb (%) On Day 7 Female ([1]; 18 mg/kg/day inhaled): 3.8 ± 0.6% | Peak MetHgb (%) On Day 7 Male ([1]; 18 mg/kg/day inhaled): 2.3 ± 0.2% | Peak MetHgb (%) On Day 1 Female ([1]; 101 mg/kg/day inhaled): 50 ± 3.0% | Peak MetHgb (%) On Day 1 Male ([1]; 101 mg/kg/day inhaled): 41 ± 3.3% | Mortality (%) Female [1, 9]: 30% | Mortality (%) Male [1, 9]: 0% | % of particles < 3 μm ([1]; Group 2 Low Dose): 97.6% | MMAD ([1]; Group 2 Low Dose): 1.0 μm | % of particles < 3 μm ([1]; Group 3 Mid Dose): 87.6% | MMAD ([1]; Group 3 Mid Dose): 1.4 μm | % of particles < 3 μm ([1]; Group 4 High Dose): 78.5% | MMAD ([1]; Group 4 High Dose): 1.7 μm | Peak MetHgb (%) On Day 7 Female [1, 10]: 36 ± 3.0 % | Peak MetHgb (%) On Day 7 Male [1, 10]: 16 ± 4.7 % | well tolerated doses [2]: less than or equal to 125 mg | AUC [3, 11]: 15.8 ng·h/mL | Cmax [3, 11]: 1.8 µM | Tmax [3, 11]: 5 min | half-life [3, 11]: 4 min | AUC [3, 12]: 292 ng·h/mL | Cmax [3, 12]: 25.8 µM | Tmax [3, 12]: 5 min | half-life [3, 12]: 10 min | Cmax ([3]; other: intratracheal insufflation of dry powder, 10 ug/kg): ~0.2 µM | plasma nitrite, extrapolated [4]: ~0.1 µM | Mortality (%) Female ([5]; 2 mg/kg/day inhaled): 0% | Mortality (%) Male ([5]; 2 mg/kg/day inhaled): 0% | Peak MetHgb (%) On Day 1 Female ([5]; 2 mg/kg/day inhaled): 0.35 ± 0.4% | Peak MetHgb (%) On Day 1 Male ([5]; 2 mg/kg/day inhaled): 0.2 ± 0.1% | Peak MetHgb (%) On Day 7 Female ([5]; 2 mg/kg/day inhaled): 0.2 ± 0.0% | Peak MetHgb (%) On Day 7 Male ([5]; 2 mg/kg/day inhaled): 0.2 ± 0.0% | Mortality (%) Female ([5]; 12 mg/kg/day inhaled): 0% | Mortality (%) Male ([5]; 12 mg/kg/day inhaled): 0% | Peak MetHgb (%) On Day 1 Female ([5]; 12 mg/kg/day inhaled): 3.4 ± 1.3% | Peak MetHgb (%) On Day 1 Male ([5]; 12 mg/kg/day inhaled): 2.6 ± 0.5% | Peak MetHgb (%) On Day 7 Female ([5]; 12 mg/kg/day inhaled): 1.6 ± 0.2% | Peak MetHgb (%) On Day 7 Male ([5]; 12 mg/kg/day inhaled): 2.1 ± 0.5% | Mortality (%) Female ([5]; 54 mg/kg/day inhaled): 0% | Mortality (%) Male ([5]; 54 mg/kg/day inhaled): 0% | Peak MetHgb (%) On Day 1 Female ([5]; 54 mg/kg/day inhaled): 19 ± 0.5% | Peak MetHgb (%) On Day 1 Male ([5]; 54 mg/kg/day inhaled): 16 ± 5.2% | Peak MetHgb (%) On Day 7 Female ([5]; 54 mg/kg/day inhaled): 17 ± 2.6% | Peak MetHgb (%) On Day 7 Male ([5]; 54 mg/kg/day inhaled): 16 ± 3.2% | % of particles < 3 μm ([5]; Group 2 Low Dose): 86.2% | MMAD ([5]; Group 2 Low Dose): 1.2 μm | % of particles < 3 μm ([5]; Group 3 Mid Dose): 73.9% | MMAD ([5]; Group 3 Mid Dose): 1.7 μm | % of particles < 3 μm ([5]; Group 4 High Dose): 73.3% | MMAD ([5]; Group 4 High Dose): 1.9 μm | AUC [6, 13]: 4270 ng·h/mL | AUC [6, 14]: 2820 ng·h/mL | Cmax [6, 13]: 172 µM | Cmax [6, 14]: 164 µM | half-life [6, 13]: 19 min | half-life [6, 14]: 10 min | Tmax [6, 13]: 5 min | Tmax [6, 14]: 15 min | AUC ([6]; iv, IV (10 mg/kg)): 8120 ng·h/mL | Cmax ([6]; iv, IV (10 mg/kg)): 312 µM | half-life ([6]; iv, IV (10 mg/kg)): 20 min | Tmax ([6]; iv, IV (10 mg/kg)): 5 min | NO in expired air, peak ([7]; after 20 minutes inhalation): approximately 15 ppb | reduction in hypoxia-induced pulmonary hypertension compared with saline nebulization ([7]; newborn lambs, inhaled nitrite 15 mg/minute): approximately 65% | minimal effective dose ([7]; newborn lambs): 1.5 mg/min | time reduction in PAP was maintained after cessation of inhalation ([7]; newborn lambs): at least 1 hour | RV:LV + S ([8]; dry powder 1 μg/kg intratracheal): 0.363 ± 0.029 | RV:LV + S ([8]; dry powder 10 μg/kg intratracheal): 0.328 ± 0.025 | decrease of RV:LV+S ([8]; high dose (10 μg/kg), p<0.05): up to 48%
